Results on 24 molecules are retold here after ChEMBL document CHEMBL1145633, “Inhibitors of the tyrosine kinase EphB4. Part 1: Structure-based design and optimization of a series of 2,4-bis-anilinopyrimidines” (Bioorg Med Chem Lett, 2008).

In this assay the target is T1, Ephrin type-B receptor 4 (Homo sapiens, UniProt P54760).
T1 sequence (P54760 whole entry): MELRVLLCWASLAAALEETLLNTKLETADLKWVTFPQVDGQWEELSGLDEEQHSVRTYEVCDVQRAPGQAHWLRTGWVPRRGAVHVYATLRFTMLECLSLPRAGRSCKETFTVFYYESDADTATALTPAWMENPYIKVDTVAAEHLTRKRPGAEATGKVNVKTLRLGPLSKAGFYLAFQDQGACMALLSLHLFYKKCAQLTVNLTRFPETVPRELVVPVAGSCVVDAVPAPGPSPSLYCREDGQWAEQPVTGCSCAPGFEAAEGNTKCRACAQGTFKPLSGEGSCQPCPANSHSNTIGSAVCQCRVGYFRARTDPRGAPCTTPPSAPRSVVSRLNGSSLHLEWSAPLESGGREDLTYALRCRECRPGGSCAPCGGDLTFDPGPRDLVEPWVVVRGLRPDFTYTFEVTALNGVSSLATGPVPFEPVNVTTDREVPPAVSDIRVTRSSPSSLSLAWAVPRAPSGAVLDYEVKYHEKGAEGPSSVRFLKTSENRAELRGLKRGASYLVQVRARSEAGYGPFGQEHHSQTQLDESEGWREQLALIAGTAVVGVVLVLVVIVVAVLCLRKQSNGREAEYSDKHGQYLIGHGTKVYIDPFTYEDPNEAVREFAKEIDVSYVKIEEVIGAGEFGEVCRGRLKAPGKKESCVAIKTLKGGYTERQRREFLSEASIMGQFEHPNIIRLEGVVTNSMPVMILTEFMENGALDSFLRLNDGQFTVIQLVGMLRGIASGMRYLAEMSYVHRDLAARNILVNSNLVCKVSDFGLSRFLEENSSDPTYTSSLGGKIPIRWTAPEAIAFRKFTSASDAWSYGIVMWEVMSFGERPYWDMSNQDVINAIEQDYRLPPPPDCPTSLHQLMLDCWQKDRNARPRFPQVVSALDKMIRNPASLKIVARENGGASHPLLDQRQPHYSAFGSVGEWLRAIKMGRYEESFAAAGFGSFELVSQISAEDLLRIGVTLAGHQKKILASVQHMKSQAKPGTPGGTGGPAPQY
Description: Inhibition of EphB4.
As usually defined, the IC50 is the concentration at which inhibition is half-maximal. `N#Cc1cccc(Nc2nccc(Nc3c(Cl)ccc4c3OCO4)n2)c1`: half-maximal inhibition (IC50) was put at 550 nM. The value for `Fc1cccc(Nc2nccc(Nc3c(Cl)ccc4c3OCO4)n2)c1` was 1150 nM. The same measure for `COc1cc(Nc2ncnc(Nc3c(Cl)ccc4c3OCO4)n2)cc(OC)c1OC`: 2960 nM; for `COc1cc(Nc2cc(Nc3c(Cl)ccc4c3OCO4)ncn2)cc(OC)c1OC`: 2540 nM. `Fc1ccc(Nc2nccc(Nc3c(Cl)ccc4c3OCO4)n2)cc1` registered an IC50 of 2300 nM.

Turning to `CS(=O)(=O)c1ccccc1Nc1nccc(Nc2c(Cl)ccc3c2OCO3)n1`, half-maximal inhibition (IC50) required 41000 nM. The molecule `Clc1cccc(Nc2nccc(Nc3c(Cl)ccc4c3OCO4)n2)c1` showed a concentration for half-maximal inhibition (IC50) of 1330 nM.

In turn, `N#Cc1ccccc1Nc1nccc(Nc2c(Cl)ccc3c2OCO3)n1` showed a concentration for half-maximal inhibition (IC50) of 20500 nM. The value for `COc1ccc(Nc2nccc(Nc3c(Cl)ccc4c3OCO4)n2)cc1` was 1940 nM. In turn, `Cc1ccc(Nc2nccc(Nc3c(Cl)ccc4c3OCO4)n2)cc1` displayed an IC50 of 1600 nM. This IC50 and that of the molecule before are within 1.5-fold of each other. As to `Clc1ccc2c(c1Nc1ccnc(Nc3ccccc3)n1)OCO2`, the IC50 stood at 1550 nM. Molecule `Clc1ccc2c(c1Nc1ccnc(Nc3ccccc3N3CCOCC3)n1)OCO2` had an IC50 of 7850 nM. This IC50 is about 5.1-fold higher than that of the molecule before. Molecule `Cc1cccc(Nc2nccc(Nc3c(Cl)ccc4c3OCO4)n2)c1` gave an IC50 of 460 nM. The value for `Clc1ccc2c(c1Nc1ccnc(Nc3ccc(N4CCOCC4)cc3)n1)OCO2` was 1000 nM.

For the molecule `COc1cccc(Nc2nccc(Nc3c(Cl)ccc4c3OCO4)n2)c1`, the half-maximal inhibitory concentration (IC50) turned out to be 640 nM. Consider `Fc1ccccc1Nc1nccc(Nc2c(Cl)ccc3c2OCO3)n1`, for which the half-inhibitory concentration (IC50) was 5000 nM.

The molecule `Cc1ccccc1Nc1nccc(Nc2c(Cl)ccc3c2OCO3)n1` had an IC50 of 14000 nM. For the molecule `COc1ccccc1Nc1nccc(Nc2c(Cl)ccc3c2OCO3)n1`, the IC50 turned out to be 3880 nM. The same measure for `NS(=O)(=O)c1ccc(Nc2nccc(Nc3c(Cl)ccc4c3OCO4)n2)cc1`: 300 nM; for `N#Cc1ccc(Nc2nccc(Nc3c(Cl)ccc4c3OCO4)n2)cc1`: 1250 nM. The same measure for `Clc1ccc(Nc2nccc(Nc3c(Cl)ccc4c3OCO4)n2)cc1`: 6000 nM.

For the molecule `Clc1ccccc1Nc1nccc(Nc2c(Cl)ccc3c2OCO3)n1`, the IC50 came to 11300 nM. The molecule `NS(=O)(=O)c1ccccc1Nc1nccc(Nc2c(Cl)ccc3c2OCO3)n1` returned an IC50 of 35500 nM. Consider `CS(=O)(=O)c1ccc(Nc2nccc(Nc3c(Cl)ccc4c3OCO4)n2)cc1`, for which the half-maximal inhibitory concentration (IC50) stood at 630 nM. This IC50 is about 56-fold lower than that of the molecule before.
